Legend:
[1] = system: CML LSCs; assay: In vivo treatment of CML mice (SCLtTA/BCR-ABL BM cells transplanted into congenic B6 mice); set-up: species or system mouse; details: CML mice, 3 weeks of treatment, followed 60 days after treatment discontinuation
Protocol: Next, we transplanted BM cells from SCLtTA/BCR-ABL mice (CD45.2) into congenic B6 mice (CD45.1). Following confirmation of CML development at 4 weeks after transplantation, mice were treated as above with scrRNA, inhibitor, scrRNA+NIL, or inhibitor+NIL for 3 weeks.

[2] = system: BCR-ABL+ primary CD34+ and/or K562 cells; assay type: cell-based, human
Protocol: Nuclei were counterstained with DAPI.
(§1) Proteins were resolved on 10% sodium dodecyl sulfate-polyacrylamide gel electrophoresis (SDS-PAGE) gels and transferred to nitrocellulose membrane. Membranes were sequentially reprobed with primary and secondary antibodies. […] Horseradish peroxidase-conjugated secondary antibodies were from Jackson ImmunoResearch Laboratories (Westgrove, Pa.). Antibody detection was performed using the Superfemto kit (Pierce Biotechnology, Rockford, Ill.). Protein levels were determined by densitometry using Image-Quant software (Amersham Pharmacia Biotech, Piscataway, N.J.).

[3] = system: CML LT-HSCs; assay: NIL treatment of miR-126flox/wt/Tie2+ or Tie2− mice transplanted with CML LT-HSCs; assay type: in vivo, mouse; details: NIL 50 mg/kg daily oral gavage for 3 weeks
Protocol: Next, we sorted CML LT-HSCs from induced CD45.1/CD45.2 SCLtTA/BCR-ABL mice and transplanted them into CD45.2 miR-126^flox/wt/Tie2+ (heterozygous miR-126 KO allele in ECs) or Tie2− (WT miR-126 allele in ECs) mice. After confirming CML development, we treated the mice with NIL (50 mg/kg, daily by oral gavage) or vehicle for 3 weeks.
Animal studies. Inducible transgenic SCLtTA/BCR-ABL mice in the FVB/N background^37,38 were backcrossed to the B6 background (CD45.2) for 10 generations. Transgenic BCR-ABL mice were maintained on tetracycline water at 0.5 g/L. Withdrawal of tetracycline results in expression of BCR-ABL and generation of a CML-like disease in these mice^37,38. Unless otherwise indicated, BCR-ABL expression was induced for 2-3 weeks by tetracycline withdrawal in 6-8 weeks old male and female mice and then BM cells (from both tibias and femurs) were collected for experiments. SCLtTA/BCR-ABL mice (CD45.2, B6) were also bred with CD45.1 B6 mice to produce CD45.1/CD45.2 SCLtTA/BCR-ABL mice as donors. miR-126^flox/flox mice (B6, from Dr. Kuo, Stanford) were crossed with Mx1-cre, Tie2-cre (both from The Jackson Laboratory) and SCLtTA/BCR-ABL mice (all B6) to obtain the following strains: miR-126^flox/flox/Mx1-cre, SCLtTA/BCR-ABL/miR-126^flox/flox/Mx1-cre, miR-126^flox/wt/Tie2-cre and miR-126^flox/flox/Tie2-cre. […]

[4] = system: CML CD34+ cells; assay: MAPK/ERK, BCL-2 and apoptosis in NIL-treated CML CD34+ cells; assay type: cell-based, human
Protocol: After transduction performed as above, GFP+ cells selected at 48 h were exposed to NIL (2 μM and 5 μM, Novartis) for another 72 h, and analyzed using assays for cell growth, apoptosis, cell cycle, CFC and CFC replating. […] Cell growth was measured by Lumino Glo (Promega). Apoptosis was measured by labeling cells with Annexin V-PE or FITC or APC and 4, 6-diamidino-2-phenylindole (DAPI) (all from BD-PharMingen, San Diego, Calif.) and analyzed by flow cytometry. […] Cells were also exposed to EdU (C10640, Invitrogen) for 2 h and EdU staining was analyzed according to the manufacturer's protocol. Cell proliferation was also measured by CFSE staining (Molecular probes) based on the manufacturer's protocol. For CFC, Lin-CD34+CD38− cells cultured with or without NIL (5 μM) were plated in methylcellulose progenitor culture, and burst-forming unit-erythroid and colony-forming unit-granulocyte and macrophage cells were counted after 14 days. Colony replating assays were performed by collecting and pooling colonies from primary CFC assays and plating 10,000 cells in secondary CFC assays.
as §1

[5] = system: human BCR-ABL+K562 cells; assay: NIL treatment of K562 cells: miR-126 staining; assay type: cell-based; details: K562 cells with and without 5 μM NIL
Protocol: K562, HUVEC, normal and CML CD34+CD38− cells were cultured and incubated with miR126 SmartFlare RNA probe (EMD Millipore) for 16 h. […] Cells were then washed in 1× phosphate buffered saline (PBS) and fixed in 4% paraformaldehyde for 3 min. Nuclei were counterstained with DAPI and the images were analyzed using a confocal microscope (Carl Zeiss).

[6] = system: human CML HSCs; assay: NIL treatment of human CML HSCs: miR-126, PIK3R2, SPRED1 expression and cell cycle; assay type: cell-based
Protocol: After transduction performed as above, GFP+ cells selected at 48 h were exposed to NIL (2 μM and 5 μM, Novartis) for another 72 h, and analyzed using assays for cell growth, apoptosis, cell cycle, CFC and CFC replating. Human HSCs and mouse LT-HSCs were also treated with CpG-miR-126 inhibitor or CpG-scrRNA (500 nM), with or without NIL (5 μM), for 72 h and analyzed for cell growth, apoptosis, cell cycle and CFC. Human CML HSCs co-cultured with control or miR-126 KD HUVECs and mouse CML LT-HSCs co-cultured with control or miR-126 KD ECs for 96 h, with or without NIL (5 μM), were also analyzed for cell growth, apoptosis, cell cycle and CFC. Cell growth was measured by Lumino Glo (Promega). Apoptosis was measured by labeling cells with Annexin V-PE or FITC or APC and 4, 6-diamidino-2-phenylindole (DAPI) (all from BD-PharMingen, San Diego, Calif.) and analyzed by flow cytometry. Cell cycle was analyzed by Ki-67-Alexa Fluor 647 (B56, BD) and DAPI labeling based on the manufacturer's protocol. Cells were also exposed to EdU (C10640, Invitrogen) for 2 h and EdU staining was analyzed according to the manufacturer's protocol. Cell proliferation was also measured by CFSE staining (Molecular probes) based on the manufacturer's protocol. For CFC, Lin-CD34+CD38− cells cultured with or without NIL (5 μM) were plated in methylcellulose progenitor culture, and burst-forming unit-erythroid and colony-forming unit-granulocyte and macrophage cells were counted after 14 days. […]
To measure the miRNA and mRNA expression, total RNA was extracted using the miRNeasy Mini Kit (Qiagen, Valencia, Calif.). […] BCR-ABL expression in human and mouse samples were measured with primer and probe sequences for BCR-ABL (B3A2 or B2A2), as previously described^46. […]
K562, HUVEC, normal and CML CD34+CD38− cells were cultured and incubated with miR126 SmartFlare RNA probe (EMD Millipore) for 16 h. […] Nuclei were counterstained with DAPI and the images were analyzed using a confocal microscope (Carl Zeiss).

[7] = CML CD34+ cells, NIL treatment, western blot

**Q.** “5′ G*G*T GCA TCG ATG CAGG*G*G* G*G xxxxx mGmUmA mGmAmA mCmCmG mUmAmC mUmCmG mUmCmA mCmUmU mA 3′ (GGTGCATCGATGCAGGGGGGGUAGAACCGUACUCGUCACUUA; phosphorothioate, 2'-O-methyl, linker; (1)..(2) phosphorothioation; (2)..(3) phosphorothioation; (16)..(17) phosphorothioation; (17)..(18) phosphorothioation; (18)..(19) phosphorothioation; (19)..(20) phosphorothioation; (20)..(21) ((CH2)3)5; (20)..(21) Five C3 carbon chain linkers, ((CH2)3)5; modified_base (21)..(21) gm; modified_base (22)..(22) um; modified_base (23)..(23) 2′-O-Methyladenosine; modified_base (24)..(24) gm; modified_b) [scrRNA, CpG ODN linked to scrambled RNA, control oligonucleotide]” was tested. Which mice that survived [1] did it give?
**A.** The mice that survived was “all of the mice treated with scrRNA alone died of leukemia”.

**Q.** Which results are given for `Cc1cn(-c2cc(NC(=O)c3ccc(C)c(Nc4nccc(-c5cccnc5)n4)c3)cc(C(F)(F)F)c2)cn1` [NIL, nilotinib]?
**A.** SPRED1 phosphorylation [2]: de-phosphorylation; binding and co-localization of SPRED1 with RAN [2]: decreased; formation of RAN/Exp-5/RCC1 complex [2]: increased; mature miR-126 levels [2]: increased; pri- and pre-miR-126 levels [2]: decreased; ratio of pri- and pre-miR-126 to mature miR-126 levels [2]: decreased; day of 50 percent survival ([3]; Tie2− mice (WT miR-126 in ECs) transplanted with CML LT-HSCs, untreated Tie2− approx. day 60): ~150 days; survival at day 150 ([3]; miR-126flox/wt/Tie2+ mice (heterozygous miR-126 KO in ECs) transplanted with CML LT-HSCs): all NIL-treated Tie2+ mice were alive; cell survival ([4]; CML CD34+ cells, NIL treatment): promoted survival; BCL-2 expression [4, 7]: increased; MAPK/ERK activation [4, 7]: enhanced; miR-126 expression [5]: increased; fraction of quiescent cells ([6]; human CML HSCs, 5 μM NIL vs DMSO, cell cycle analysis): increased; SPRED1 levels ([6]; human CML Lin-CD34+CD38− cells treated with NIL, compared with vehicle alone, QPCR): decreased; miR-126 expression ([6]; human CML Lin-CD34+CD38− cells, NIL 2 μM or 5 μM, compared with vehicle alone, QPCR and miRNA staining): increased

**Q.** With `O=C(NOC[C@H](O)CO)c1ccc(F)c(F)c1Nc1ccc(I)cc1F` [PD0325901] as the compound, how does the NIL-induced apoptosis ([4]; CML Lin-CD34+ cells, PD0325901 500 nM in combination with NIL, 72 h) read?
**A.** The NIL-induced apoptosis was “enhanced”.

From US11801266B2, “Methods of using anti-MIR126 compounds” (CITY OF HOPE, priority 2019, dated 2023)
